Reference: PMC4390081 (Biochemistry, 2013)

Molecular target: chlorite dismutase (DaCld) (Dechloromonas aromatica (nom. nud.), UniProt Q47CX0)
Test: steady-state peroxidase assay
Type: biochemical

Chain of chlorite dismutase (DaCld) (Q47CX0 35-282): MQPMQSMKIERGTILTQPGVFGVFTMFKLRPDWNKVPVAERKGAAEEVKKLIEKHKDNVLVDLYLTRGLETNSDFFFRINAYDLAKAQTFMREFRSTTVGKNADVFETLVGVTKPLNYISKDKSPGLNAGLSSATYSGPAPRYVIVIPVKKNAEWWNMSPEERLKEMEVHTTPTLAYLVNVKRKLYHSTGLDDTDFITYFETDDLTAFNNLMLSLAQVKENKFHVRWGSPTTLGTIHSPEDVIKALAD

kcat (S^-1): 2.8 s⁻¹
Compound: COc1ccccc1O [guaiacol, 2-methoxyphenol]
